Results from patent US20090137549A1, “Novel compounds useful for the treatment of degenerative & inflamatory diseases” (priority 2006, published 2009).

Target: PDE1A (Homo sapiens, UniProt P54750)
Experiment: PDE1A dose response, Cyclic Nucleotide Phosphodiesterase Assay Kit from Biomol (colorimetric)
Type: biochemical
Settings: purified PDE1A enzyme, 100 μM cAMP
Outline: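 Purified PDE1A hydrolysed 100 μM cAMP with 5′-nucleotidase in Tris 20 mM pH 7.4 with calmodulin, Ca2+, Mg2+, 45 min at 37° C. Released phosphate read by malachite-green absorbance at 615 nm. Duplicate 8-point 1/3 dilutions from 20 μM, 1% DMSO; 10 μM vardenafil defined 100% inhibition.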

SMILES | IC50 [µM]
CC(C)N1CCN(Cc2csc(N3CC(c4nc5c(cnn5C5CCCCC5)c(=O)[nH]4)C3)n2)CC1 [Example 143, 1-cyclohexyl-6-(1-(4-((4-isopropylpiperazin-1-yl)methyl)thiazol-2-yl)azetidin-3-yl)-1H-pyrazolo[3,4-d]pyrimidin-4(5H)-one] | 1 to 1.5
Cc1nn(C2CCCCC2)c2nc(C3CCCN(S(=O)(=O)c4ccccc4)C3)[nH]c(=O)c12 (stereo not drawn) [Example 106, 1-cyclohexyl-3-methyl-6-(1-(phenylsulfonyl)piperidin-3-yl)-1H-pyrazolo[3,4-d]pyrimidin-4(5H)-one] | 1 to 1.5
O=c1[nH]c(C2CCCN(Cc3ccccc3)C2)nc2c1cnn2C1CCCCC1 (stereo not drawn) [Example 176, 6-(1-Benzylpiperidin-3-yl)-1-cyclohexyl-1H-pyrazolo[3,4-d]pyrimidin-4(5H)-one] | 1 to 1.5
N#Cc1ccc(C(=O)N2CCCC(c3nc4c(cnn4-c4ccccc4)c(=O)[nH]3)C2)cc1 (stereo not drawn) [Example 110, 4-(3-(4-oxo-1-phenyl-4,5-dihydro-1H-pyrazolo[3,4-d]pyrimidin-6-yl)piperidine-1-carbonyl)benzonitrile] | 1 to 1.5
O=C(NCCN1CCCC1)N1CC(c2nc3c(cnn3C3CCCCC3)c(=O)[nH]2)C1 [Example 84, 3-(1-cyclohexyl-4-oxo-4,5-dihydro-1H-pyrazolo[3,4-d]pyrimidin-6-yl)-N-(2-(pyrrolidin-1-yl)ethyl)azetidine-1-carboxamide] | 0.501 to 1
Cc1nn(C2CCCCC2)c2nc(C3CCCN(C(=O)c4ccccc4NS(C)(=O)=O)C3)[nH]c(=O)c12 (stereo not drawn) [Example 181, N-{2-[3-(1-Cyclohexyl-3-methyl-4-oxo-4,5-dihydro-1H-pyrazolo[3,4-d]pyrimidin-6-yl)-piperidine-1-carbonyl]phenyl}-methanesulfonamide] | 0.501 to 1
Cn1c(CN2CC(c3nc4c(cnn4C(C)(C)C)c(=O)[nH]3)C2)nc2ccccc21 [Example 171, 1-tert-Butyl-6-(1-((1-methyl-1H-benzo[d]imidazol-2-yl)methyl)azetidin-3-yl)-1H-pyrazolo[3,4-d]pyrimidin-4(5H)-one] | 0.501 to 1
Cc1nn(C2CCCCC2)c2nc(C3CCCN(C(=O)c4ccc(C(F)(F)F)cc4)C3)[nH]c(=O)c12 (stereo not drawn) [Example 96, 1-cyclohexyl-3-methyl-6-(1-(4-(trifluoromethyl)benzoyl)piperidin-3-yl)-1H-pyrazolo[3,4-d]pyrimidin-4(5H)-one] | 0.501 to 1
Cc1nn(-c2ccccc2)c2nc(C3CCCN(C(=O)c4ccc(N(C)C)cc4)C3)[nH]c(=O)c12 (stereo not drawn) [Example 80, 6-(1-(4-(dimethylamino)benzoyl)piperidin-3-yl)-3-methyl-1-phenyl-1H-pyrazolo[3,4-d]pyrimidin-4(5H)-one] | 0.501 to 1
COc1ccccc1C(=O)N1CCCC(c2nc3c(c(C)nn3C3CCC3)c(=O)[nH]2)C1 (stereo not drawn) [Example 82, 1-cyclobutyl-6-(1-(2-methoxybenzoyl)piperidin-3-yl)-3-methyl-1H-pyrazolo[3,4-d]pyrimidin-4(5H)-one] | 0.501 to 1
CC(C)N1CCCC(NC(=O)N2CC(c3nc4c(cnn4C4CCCCC4)c(=O)[nH]3)C2)C1 (stereo not drawn) [Example 183, 3-(1-Cyclohexyl-4-oxo-4,5-dihydro-1H-pyrazolo[3,4-d]pyrimidin-6-yl)-azetidine-1-carboxylic acid (1-isopropyl-piperidin-3-yl)-amide] | 0.101 to 0.5
Cn1cncc1CNC(=O)N1CC(c2nc3c(cnn3C3CCCCC3)c(=O)[nH]2)C1 [Example 74, 3-(1-cyclohexyl-4-oxo-4,5-dihydro-1H-pyrazolo[3,4-d]pyrimidin-6-yl)-N-((1-methyl-1H-imidazol-5-yl)methyl)azetidine-1-carboxamide] | 0.101 to 0.5
Cc1ccc(S(=O)(=O)N2CCCC(c3nc4c(c(C)nn4C4CCCCC4)c(=O)[nH]3)C2)cc1 (stereo not drawn) [Example 86, 1-cyclohexyl-3-methyl-6-(1-(p-tolylsulfonyl)piperidin-3-yl)-1H-pyrazolo[3,4-d]pyrimidin-4(5H)-one] | 0.501 to 1
Cc1nn(C2CCCCC2)c2nc(C3CCCN(C(=O)Oc4ccccc4)C3)[nH]c(=O)c12 (stereo not drawn) [Example 124, phenyl 3-(1-cyclohexyl-3-methyl-4-oxo-4,5-dihydro-1H-pyrazolo[3,4-d]pyrimidin-6-yl)piperidine-1-carboxylate] | 0.501 to 1

Next, values leading:

IC50 [µM] | SMILES
0.001 to 0.1 | COc1ccc(S(=O)(=O)N2CCCC(c3nc4c(cnn4C4CCCCC4)c(=O)[nH]3)C2)cc1OC (stereo not drawn) [Example 44, 1-cyclohexyl-6-(1-(3,4-dimethoxyphenylsulfonyl)piperidin-3-yl)-1H-pyrazolo[3,4-d]pyrimidin-4(5H)-one]
0.101 to 0.5 | COc1cccc(C(=O)N2CCCC(c3nc4c(cnn4-c4ccccc4)c(=O)[nH]3)C2)c1 (stereo not drawn) [Example 68, 6-(1-(3-methoxybenzoyl)piperidin-3-yl)-1-phenyl-1H-pyrazolo[3,4-d]pyrimidin-4(5H)-one]
0.101 to 0.5 | COc1ccc(S(=O)(=O)N2CCCC(c3nc4c(c(C)nn4C4CCCCC4)c(=O)[nH]3)C2)cc1 (stereo not drawn) [Example 56, 1-cyclohexyl-6-(1-(4-methoxyphenylsulfonyl)piperidin-3-yl)-3-methyl-1H-pyrazolo[3,4-d]pyrimidin-4(5H)-one]
0.101 to 0.5 | Cc1nn(-c2ccc(F)cc2)c2nc(C3CN(C(=O)NC4CCCCC4)C3)[nH]c(=O)c12 [Example 50, N-cyclohexyl-3-(1-(4-fluorophenyl)-3-methyl-4-oxo-4,5-dihydro-1H-pyrazolo[3,4-d]pyrimidin-6-yl)azetidine-1-carboxamide]
0.001 to 0.1 | Nc1cc(N2CC(c3nc4c(cnn4C4CCCCC4)c(=O)[nH]3)C2)ccc1[N+](=O)[O-] [Example 146, 6-(1-(3-amino-4-nitrophenyl)azetidin-3-yl)-1-cyclohexyl-1H-pyrazolo[3,4-d]pyrimidin-4(5H)-one]
0.001 to 0.1 | CC(C)(C)OC(=O)N1CCCC(NC(=O)N2CC(c3nc4c(cnn4C4CCCCC4)c(=O)[nH]3)C2)C1 (stereo not drawn) [Example 26, tert-butyl 3-(3-(1-cyclohexyl-4-oxo-4,5-dihydro-1H-pyrazolo[3,4-d]pyrimidin-6-yl)azetidine-1-carboxamido)piperidine-1-carboxylate]
0.101 to 0.5 | COc1cccc(C(=O)N2CCCC(c3nc4c(cnn4C4CCCCC4)c(=O)[nH]3)C2)c1 (stereo not drawn) [Example 53, 1-cyclohexyl-6-(1-(3-methoxybenzoyl)piperidin-3-yl)-1H-pyrazolo[3,4-d]pyrimidin-4(5H)-one]
0.001 to 0.1 | Cc1nn(C2CCCCC2)c2nc(C3CN(C(=O)N[C@@H](C)c4ccccc4)C3)[nH]c(=O)c12 [Example 42, (S)-3-(1-cyclohexyl-3-methyl-4-oxo-4,5-dihydro-1H-pyrazolo[3,4-d]pyrimidin-6-yl)-N-(1-phenylethyl)azetidine-1-carboxamide]
0.001 to 0.1 | O=C(Nc1ccc(OC(F)(F)F)cc1)N1CC(c2nc3c(cnn3C3CCCCC3)c(=O)[nH]2)C1 [Example 25, 3-(1-cyclohexyl-4-oxo-4,5-dihydro-1H-pyrazolo[3,4-d]pyrimidin-6-yl)-N-(4-(trifluoromethoxy)phenyl)azetidine-1-carboxamide]
0.101 to 0.5 | CC(C)(C)n1ncc2c(=O)[nH]c(C3CN(c4ccccn4)C3)nc21 [Example 163, 1-tert-Butyl-6-(1-pyridin-2-yl-azetidin-3-yl)-1,5-dihydro-pyrazolo[3,4-d]pyrimidin-4-one]
0.001 to 0.1 | CC(C)(C)OC(=O)N1CCC(NC(=O)N2CC(c3nc4c(cnn4C4CCCCC4)c(=O)[nH]3)C2)CC1 [Example 41, tert-butyl 4-(3-(1-cyclohexyl-4-oxo-4,5-dihydro-1H-pyrazolo[3,4-d]pyrimidin-6-yl)azetidine-1-carboxamido)piperidine-1-carboxylate]
0.101 to 0.5 | CC(C)(C)n1ncc2c(=O)[nH]c(C3CN(CC(=O)c4ccccc4)C3)nc21 [Example 174, 1-tert-Butyl-6-(1-(2-oxo-2-phenylethyl)azetidin-3-yl)-1H-pyrazolo[3,4-d]pyrimidin-4(5H)-one]
0.101 to 0.5 | O=C(NCCN1CCOCC1)N1CC(c2nc3c(cnn3C3CCCCC3)c(=O)[nH]2)C1 [Example 61, 3-(1-cyclohexyl-4-oxo-4,5-dihydro-1H-pyrazolo[3,4-d]pyrimidin-6-yl)-N-(2-morpholinoethyl)azetidine-1-carboxamide]
0.001 to 0.1 | CCCCNC(=O)N1CC(c2nc3c(cnn3C3CCCCC3)c(=O)[nH]2)C1 [Example 34, N-butyl-3-(1-cyclohexyl-4-oxo-4,5-dihydro-1H-pyrazolo[3,4-d]pyrimidin-6-yl)azetidine-1-carboxamide]
0.101 to 0.5 | CC(=O)c1ccccc1N1CC(c2nc3c(cnn3C3CCCCC3)c(=O)[nH]2)C1 [Example 151, 6-(1-(2-acetoylphenyl)azetidin-3-yl)-1-cyclohexyl-1H-pyrazolo[3,4-d]pyrimidin-4(5H)-one]
0.101 to 0.5 | COC(=O)c1cccc(C(=O)N2CCCC(c3nc4c(c(C)nn4C4CCCCC4)c(=O)[nH]3)C2)c1 (stereo not drawn) [Example 73, methyl 3-(3-(1-cyclohexyl-3-methyl-4-oxo-4,5-dihydro-1H-pyrazolo[3,4-d]pyrimidin-6-yl)piperidine-1-carbonyl)benzaate]
0.001 to 0.1 | CC(C)(C)n1ncc2c(=O)[nH]c(C3CN(C(=O)Oc4cccc(Cl)c4)C3)nc21 [Example 118, 3-chlorophenyl 3-(1-tert-butyl-4-oxo-4,5-dihydro-1H-pyrazolo[3,4-d]pyrimidin-6-yl)azetidine-1-carboxylate]
0.001 to 0.1 | N#Cc1ccc(NC(=O)N2CC(c3nc4c(cnn4C4CCCCC4)c(=O)[nH]3)C2)cc1 [Example 33, N-(4-cyanophenyl)-3-(1-cyclohexyl-4-oxo-4,5-dihydro-1H-pyrazolo[3,4-d]pyrimidin-6-yl)azetidine-1-carboxamide]
0.001 to 0.1 | Cc1nn(C(C)(C)C)c2nc(C3CN(C(=O)NCc4ccc(F)cc4)C3)[nH]c(=O)c12 [Example 17, 3-(1-tert-butyl-3-methyl-4-oxo-4,5-dihydro-1H-pyrazolo[3,4-d]pyrimidin-6-yl)-N-(4-fluorobenzyl)azetidine-1-carboxamide]
